Legend:
CYP2B6 = target: T1, CYP2B6 (Homo sapiens, UniProt P20813); assay: CYP450 isoform enzymatic inhibition, 2B6; format: in vitro ADME; details: CYP2B6 enzyme, pH 7.4, read-out: CYP inhibiton/% 2B6
T1 sequence (P20813 1-491): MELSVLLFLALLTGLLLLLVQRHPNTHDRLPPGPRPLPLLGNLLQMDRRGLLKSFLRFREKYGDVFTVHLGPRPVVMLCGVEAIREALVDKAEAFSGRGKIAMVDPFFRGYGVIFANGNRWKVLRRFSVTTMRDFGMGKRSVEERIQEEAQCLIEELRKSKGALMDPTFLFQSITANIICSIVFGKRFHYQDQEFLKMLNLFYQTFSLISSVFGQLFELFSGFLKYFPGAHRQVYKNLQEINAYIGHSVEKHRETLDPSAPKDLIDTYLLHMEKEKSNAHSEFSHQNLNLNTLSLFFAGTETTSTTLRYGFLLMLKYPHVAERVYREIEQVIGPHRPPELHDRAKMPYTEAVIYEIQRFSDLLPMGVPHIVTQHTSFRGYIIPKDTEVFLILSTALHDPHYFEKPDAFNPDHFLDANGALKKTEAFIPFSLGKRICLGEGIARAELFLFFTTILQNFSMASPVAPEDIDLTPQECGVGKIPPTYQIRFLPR

CYP1A2 = target: T2, CYP1A2 (Homo sapiens, UniProt P05177); assay: in vitro; details: CYP1A2 enzyme, pH 7.4, probe EOMCC (0.01 mM)
T2 sequence (P05177 1-516): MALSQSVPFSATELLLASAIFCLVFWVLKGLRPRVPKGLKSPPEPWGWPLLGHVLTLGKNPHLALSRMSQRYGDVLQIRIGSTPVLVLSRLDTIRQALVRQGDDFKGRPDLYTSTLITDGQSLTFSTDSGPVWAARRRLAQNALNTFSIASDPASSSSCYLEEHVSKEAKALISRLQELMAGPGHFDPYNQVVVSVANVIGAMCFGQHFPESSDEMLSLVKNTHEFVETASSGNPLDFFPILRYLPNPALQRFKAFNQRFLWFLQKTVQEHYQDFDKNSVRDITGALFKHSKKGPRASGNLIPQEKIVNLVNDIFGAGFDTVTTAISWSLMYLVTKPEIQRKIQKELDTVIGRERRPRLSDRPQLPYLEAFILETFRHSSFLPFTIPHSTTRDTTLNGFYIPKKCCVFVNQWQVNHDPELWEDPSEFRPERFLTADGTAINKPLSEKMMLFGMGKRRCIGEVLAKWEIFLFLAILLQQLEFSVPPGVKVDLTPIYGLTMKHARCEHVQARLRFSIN

CYP2C8 = target: T3, CYP2C8 (Homo sapiens, UniProt P10632); assay: in vitro; details: CYP2C8 enzyme, pH 7.4, probe DBOMF (0.001 mM)
T3 sequence (P10632 1-490): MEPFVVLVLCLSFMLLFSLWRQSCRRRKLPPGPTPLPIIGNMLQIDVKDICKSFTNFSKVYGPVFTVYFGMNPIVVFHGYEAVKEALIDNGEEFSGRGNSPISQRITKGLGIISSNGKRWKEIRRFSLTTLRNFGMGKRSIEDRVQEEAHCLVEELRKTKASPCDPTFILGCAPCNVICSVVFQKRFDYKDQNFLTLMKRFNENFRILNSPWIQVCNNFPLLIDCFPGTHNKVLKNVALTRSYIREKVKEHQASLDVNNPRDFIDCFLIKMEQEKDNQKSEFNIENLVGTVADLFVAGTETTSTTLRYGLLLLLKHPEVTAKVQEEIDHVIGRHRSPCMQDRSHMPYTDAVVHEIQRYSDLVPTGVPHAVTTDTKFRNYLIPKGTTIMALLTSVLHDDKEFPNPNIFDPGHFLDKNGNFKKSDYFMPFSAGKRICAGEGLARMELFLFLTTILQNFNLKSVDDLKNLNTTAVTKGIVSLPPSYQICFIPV

CYP2C9 = CYP2C9 (Homo sapiens, UniProt P11712); assay: in vitro; details: CYP2C9 enzyme, pH 7.4, probe BOMCC (0.01 mM)
CYP2D6 = CYP2D6 (Homo sapiens, UniProt P10635); assay: in vitro; details: CYP2D6 enzyme, pH 7.4, probe EOMCC (0.01 mM)
CYP3A4 = CYP3A4 (Homo sapiens, UniProt P08684); assay: in vitro; details: CYP3A4 enzyme, pH 7.4, probe BOMCC (0.01 mM)
[1] = Liver microsomes in vitro stability (mouse); format: in vitro ADME; details: read-out: T1/2/min
Description: (§1) 1. Preparation of Working Solution:
(§2) Microsomes were taken out from the −80° C. refrigerator, rapidly melted in a 37° C. water bath and placed on ice until ready to use. The test article was diluted with DMSO to prepare a 10 mM stock solution, and then diluted with acetonitrile to a 0.5 mM secondary stock solution. […] NADPH was diluted with Buffer C to a working solution of 6 mM for the starter solution. An acetonitrile solution containing an internal standard was prepared as the precipitant, and Verapamil-HCl was chosen as the internal standard at a concentration of 4 ng/ml.
(§3) 2. Experimental Procedure:
(§4) A round-bottom well plate was taken, noted as the reaction plate, and the prepared working solution for each compound was dispensed into the well plate according to the number of replicates and time points (0 h samples were also added to the reaction plate), 30 μL/well; the plate was incubated at 37° C. for 10 min. A separate plate with pointed bottom wells, noted as a precipitation plate, was added with 135 μL precipitant per well; 0 h samples were transferred to the plate after 10 min incubation and 15 μL of starter solution was added; the plate was placed on ice before centrifugation.
(§5) The diluted starter solution was added in sufficient quantity to the dispensing plate to facilitate the multichannel pipette aspiration operation.
(§6) The reaction was carried out on a warm incubation shaker and 15 μL of starter solution/sample is added to the plate using a multichannel pipette. The reaction was mixed with a slight shake to initiate the reaction, which was accurately timed and recorded using a timer. In general, samples with shorter reaction times are initiated late and vice versa early, allowing sufficient time for multiple plate manipulation to terminate the reaction. For example, as for the four experiments of 5, 15, 30, and 60 min, the 60 min experiment was started first, and the 5 min experiment was started later, so as to leave sufficient time for the 5 min group.
(§7) After the reaction time had elapsed, all the solution in the plate was aspirated using the multichannel pipette and added to the precipitation plate to terminate the reaction at that point in time. After all reactions had been terminated, the plates were shaken for ten minutes on a plate shaker at 600 rpm to precipitate the protein. The plate was centrifuged at 4° C. for 15 minutes at maximum rpm. 80 μL of supernatant was taken, 320 μL of pure water was added and mixed for LC-MS analysis.

[2] = Liver microsomes in vitro stability (human); format: in vitro ADME; details: read-out: T1/2/min (H)
Description: as §1, §2, §3, §4, §5, §6, §7

CYP2D6, sequence (P10635 whole entry, species assumed): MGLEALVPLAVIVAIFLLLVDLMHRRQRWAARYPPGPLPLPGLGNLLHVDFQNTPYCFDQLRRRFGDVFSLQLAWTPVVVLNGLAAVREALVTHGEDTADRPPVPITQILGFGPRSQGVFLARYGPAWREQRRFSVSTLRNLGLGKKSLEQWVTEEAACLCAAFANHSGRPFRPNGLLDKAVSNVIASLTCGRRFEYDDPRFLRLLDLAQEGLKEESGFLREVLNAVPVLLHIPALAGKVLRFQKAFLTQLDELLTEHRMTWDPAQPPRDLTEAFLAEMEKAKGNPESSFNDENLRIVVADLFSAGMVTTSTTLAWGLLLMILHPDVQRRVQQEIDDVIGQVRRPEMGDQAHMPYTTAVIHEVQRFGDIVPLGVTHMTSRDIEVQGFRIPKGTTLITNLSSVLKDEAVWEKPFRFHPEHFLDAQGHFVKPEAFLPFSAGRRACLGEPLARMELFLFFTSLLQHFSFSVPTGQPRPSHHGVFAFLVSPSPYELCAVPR
CYP3A4, sequence (P08684 whole entry, species assumed): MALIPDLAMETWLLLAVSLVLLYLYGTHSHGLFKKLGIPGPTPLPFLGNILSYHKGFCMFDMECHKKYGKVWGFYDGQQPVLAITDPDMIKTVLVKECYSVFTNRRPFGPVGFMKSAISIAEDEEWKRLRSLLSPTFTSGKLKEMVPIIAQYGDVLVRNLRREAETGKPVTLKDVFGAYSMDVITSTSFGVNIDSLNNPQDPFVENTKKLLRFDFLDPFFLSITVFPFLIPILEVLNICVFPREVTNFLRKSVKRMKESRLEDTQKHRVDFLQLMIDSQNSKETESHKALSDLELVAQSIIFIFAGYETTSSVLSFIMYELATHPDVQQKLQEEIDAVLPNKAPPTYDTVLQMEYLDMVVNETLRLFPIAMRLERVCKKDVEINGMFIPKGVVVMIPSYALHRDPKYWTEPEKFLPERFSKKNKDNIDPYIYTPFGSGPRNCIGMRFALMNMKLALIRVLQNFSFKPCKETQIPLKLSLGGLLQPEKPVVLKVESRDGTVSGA
CYP2C9, sequence (P11712 whole entry, species assumed): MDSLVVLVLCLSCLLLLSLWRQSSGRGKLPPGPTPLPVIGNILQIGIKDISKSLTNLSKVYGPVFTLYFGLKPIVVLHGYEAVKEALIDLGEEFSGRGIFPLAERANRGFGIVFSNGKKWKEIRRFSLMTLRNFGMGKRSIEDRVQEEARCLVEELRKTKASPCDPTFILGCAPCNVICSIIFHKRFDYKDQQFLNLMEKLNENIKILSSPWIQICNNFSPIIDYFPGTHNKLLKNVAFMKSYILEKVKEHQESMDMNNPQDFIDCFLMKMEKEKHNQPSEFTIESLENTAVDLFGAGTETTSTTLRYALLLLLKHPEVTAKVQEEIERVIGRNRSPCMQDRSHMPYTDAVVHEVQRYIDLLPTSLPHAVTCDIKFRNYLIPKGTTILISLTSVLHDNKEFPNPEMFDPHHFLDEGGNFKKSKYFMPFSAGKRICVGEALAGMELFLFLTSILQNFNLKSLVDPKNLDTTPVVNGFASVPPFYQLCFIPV

inhibition at 30 min, 10 µM (CYP2B6) [%] | inhibition at 30 min, 1 µM (CYP1A2) [%] | inhibition at 30 min, 10 µM (CYP1A2) [%] | inhibition at 30 min, 1 µM (CYP2C8) [%] | inhibition at 30 min, 10 µM (CYP2C8) [%] | inhibition at 30 min, 1 µM (CYP2C9) [%] | inhibition at 30 min, 10 µM (CYP2C9) [%] | inhibition at 30 min, 1 µM (CYP2D6) [%] | inhibition at 30 min, 10 µM (CYP2D6) [%] | inhibition at 30 min, 1 µM (CYP3A4) [%] | inhibition at 30 min, 10 µM (CYP3A4) [%] | Compound | half-life at 1 µM [1] [min] | half-life at 1 µM [2] [min]
17.4 | 20.2 | 17.5 | 7.1 | 17.3 | 15.4 | 6.4 | 3.4 | 1.5 | -14 | -32.9 | C=CCn1c(=O)c2cnc(Nc3ccc(N4CCN(C)CC4)cc3)nc2n1-c1cccc(C(C)(C)O)n1 [AZD1775] |  | 
 |  |  |  |  |  |  |  |  |  |  | C=CCn1c(=O)c2cnc(Nc3ccc(N4CC5CC(C4)N5C)cc3)nc2n1-c1cccc(C(C)(C)O)n1 [Compound 27] | 33 | 105

Reference: patent publication US20250034151A1, “WEE1 INHIBITOR, PREPARATION THEREFOR, AND USE THEREOF” (JIANGSU TASLY DIYI PHARMACEUTICAL CO., LTD., priority 2022, published 2025)
